pEC50: −log10 of the molar value.
Columns and labels:
[1] = system: HepG2 human hepatocytes; assay: Human cell cytotoxicity assay; assay type: cell-based; details: HepG2, read-out: HepG2 EC50
[2] = system: P. falciparum Dd2; assay: Plasmodium falciparum SYBR Green I assay; assay type: cell-based; details: relative to HepG2 cytotoxicity

## COC(=O)[C@@]12Oc3cc4c(c(O)c3C(=O)C1=C(O)CC[C@@H]2O)[C@@H]1C=C[C@@]2(C4)C(=O)c3cc(C)cc(O)c3C(=O)[C@]2(O)C1=O [compound 1, xanthoquinodin NPDG A1]
[1]
  pEC50: < 4.60

## COC(=O)[C@]1([C@@H](O)CCC(=O)O)CC(=O)c2c(cc3c(c2O)[C@@H]2C=C[C@@]4(C3)C(=O)c3cc(C)cc(O)c3C(O)=C4C2=O)O1 [compound 3, xanthoquinodin NPDG A3]
[1]
  pEC50: < 4.60

## COC(=O)[C@]1([C@@H](O)CCC(=O)O)CC(=O)c2c(cc3c(c2O)[C@@H]2C=C[C@@]4(C3)C(=O)c3cc(C)cc(O)c3C(=O)[C@]4(O)C2=O)O1 [compound 4, Xanthoquinodin NPDG A4]
[1]
  pEC50: < 4.60

## COC(=O)[C@]1([C@@H]2CCC(=O)O2)CC(=O)c2c(cc3c(c2O)[C@@H]2C=C[C@@]4(C3)C(=O)c3cc(C)cc(O)c3C(=O)[C@]4(O)C2=O)O1 [compound 5, Xanthoquinodin NPDG A5]
[1]
  pEC50: < 4.60

## COC(=O)[C@]12Oc3c(c(O)cc4c3[C@@H]3C=C[C@@]5(C4)C(=O)c4cc(C)cc(O)c4C(=O)[C@]5(O)C3=O)C(=O)C1=C(O)CC[C@@H]2O [compound 6, xanthoquinodin NPDG B1]
[1]
  pEC50: < 4.60

## COC(=O)[C@@]12Oc3cc4c(c(O)c3C(=O)C1=C(O)CC[C@@H]2O)[C@@H]1C=C[C@@]2(C4)C(=O)c3cc(C)cc(O)c3C(O)=C2C1=O [compound 7, xanthoquinodin A1]
[1]
  pEC50: < 4.60

## COC(=O)[C@]12Oc3cc4c(c(O)c3C(=O)C1=C(O)CC[C@@H]2O)[C@@H]1C=C[C@@]2(C4)C(=O)c3cc(C)cc(O)c3C(O)=C2C1=O [compound 8, xanthoquinodin A2]
[2]
  P. falciparum SI: >50
[1]
  pEC50: < 4.60

## COC(=O)[C@]1([C@@H]2CCC(=O)O2)CC(=O)c2c(cc3c(c2O)[C@@H]2C=C[C@@]4(C3)C(=O)c3cc(C)cc(O)c3C(O)=C4C2=O)O1 [compound 9, xanthoquinodin A3]
[1]
  pEC50: < 4.60

## COC(=O)[C@]1([C@@H]2CCC(=O)O2)CC(=O)c2c(O)cc(C)cc2O1 [compound 12, gonytolide C]
[1]
  pEC50: < 4.60
